Biological target: T1, recombinant His-tag Y220C p53 DBD protein (Homo sapiens, UniProt P04637, Y220C)
T1 construct: recombinant His-tag Y220C p53 DBD protein (amino acids #˜94-312)
Assay: In vitro DNA binding activity assay (TR-FRET): binding of His-tag Y220C p53 DBD to biotin-labeled consensus DNA
Assay type: biochemical
Conditions: for Y220C SC150 (μM): SC150 = concentration to increase DNA binding by […], His-tag Y220C p53 DBD, biotin-labeled consensus DNA

SMILES	Y220C SC150 (μM)	SC150 (μM) (concentration to increase DNA binding by […], incubated at either 27° C. or 29° C. for 60 min)
CN1CC[C@@H](Nc2cccc3c2cc(-c2noc(C(=O)NCc4ccccc4)n2)n3CC(F)(F)F)[C@@H](F)C1 [Compound 544B, N-benzyl-3-(4-{[(3S,4R)-3-fluoro-1-methylpiperidin-4-yl]amino}-1-(2,2,2-trifluoroethyl)-1H-indol-2-yl)-1,2,4-oxadiazole-5-carboxamide]	** (** = 0.1 μM ≤ SC150 < 0.5 μM)	–
CC(C)(C)N1CC[C@@H](Nc2cccc3c2cc(-c2noc(CNC(=O)c4ccn(C(C)(C)C)c4)n2)n3CC(F)(F)F)[C@H](F)C1 [Compound 394B, 1-tert-butyl-N-{[3-(4-{[(3R,4R)-1-tert-butyl-3-fluoropiperidin-4-yl]amino}-1-(2,2,2-trifluoroethyl)-1H-indol-2-yl)-1,2,4-oxadiazol-5-yl]methyl}-1H-pyrrole-3-carboxamide]	* (* = 0 μM ≤ SC150 < 0.1 μM)	–
CN1CCC(Nc2cccc3c2cc(-c2nnc(CNC(=O)c4ccc(C(=O)O)cc4)s2)n3CC(F)(F)F)CC1 [Compound 54B, 4-{[(5-{4-[(1-methylpiperidin-4-yl)amino]-1-(2,2,2-trifluoroethyl)-1H-indol-2-yl}-1,3,4-thiadiazol-2-yl)methyl]carbamoyl}benzoic acid]	** (** = 0.1 μM ≤ SC150 < 0.5 μM)	–
CN1CC[C@H](Nc2cccc3c2cc(-c2ccc(CNC(=O)c4ccccc4)s2)n3CC(F)(F)F)[C@H](F)C1 (racemic) [Compound 102B, (+/−)-N-{[5-(4-{[(3R,4S)-3-fluoro-1-methylpiperidin-4-yl]amino}-1-(2,2,2-trifluoroethyl)-1H-indol-2-yl)thiophen-2-yl]methyl}benzamide]	** (** = 0.1 μM ≤ SC150 < 0.5 μM)	–
CC(C)(C)n1ccc(C(=O)NCc2nc(-c3cc4c(N[C@H]5CCOC[C@H]5F)cccc4n3CC(F)(F)F)no2)c1 [Compound 492B, 1-tert-butyl-N-{[3-(4-{[(3S,4S)-3-fluorooxan-4-yl]amino}-1-(2,2,2-trifluoroethyl)-1H-indol-2-yl)-1,2,4-oxadiazol-5-yl]methyl}-1H-pyrrole-3-carboxamide]	* (* = 0 μM ≤ SC150 < 0.1 μM)	–
CCN1CC[C@@H](Nc2cccc3c2cc(-c2noc(CNC(=O)c4ccn(C5CCOC5)c4)n2)n3CC(F)(F)F)[C@@H](F)C1 (stereo partly drawn) [Compound 324B, N-{[3-(4-{[(3S,4R)-1-ethyl-3-fluoropiperidin-4-yl]amino}-1-(2,2,2-trifluoroethyl)-1H-indol-2-yl)-1,2,4-oxadiazol-5-yl]methyl}-1-(oxolan-3-yl)-1H-pyrrole-3-carboxamide]	* (* = 0 μM ≤ SC150 < 0.1 μM)	–
CN1CC[C@@H](Nc2cccc3c2cc(-c2noc(CNC(=O)c4ccn(C5CCC(F)(F)C5)c4)n2)n3CC(F)(F)F)[C@@H](F)C1 (stereo partly drawn) [Compound 347B, 1-(3,3-difluorocyclopentyl)-N-{[3-(4-{[(3S,4R)-3-fluoro-1-methylpiperidin-4-yl]amino}-1-(2,2,2-trifluoroethyl)-1H-indol-2-yl)-1,2,4-oxadiazol-5-yl]methyl)-1H-pyrrole-3-carboxamide]	* (* = 0 μM ≤ SC150 < 0.1 μM)	–
CC(C)(C)n1ccc(C(=O)NCc2nc(-c3cc4c(NC5CCn6nccc6C5)cccc4n3CC(F)(F)F)no2)c1 (stereo not shown) [Compound 332B, 1-tert-butyl-N-({3-[4-({4H,5H,6H,7H-pyrazolo[1,5-a]pyridin-5-yl}amino)-1-(2,2,2-trifluoroethyl)-1H-indol-2-yl]-1,2,4-oxadiazol-5-yl}methyl)-1H-pyrrole-3-carboxamide]	* (* = 0 μM ≤ SC150 < 0.1 μM)	–
CC(C)(C)N1CC[C@@H](Nc2cccc3c2cc(-c2noc(CNC(=O)c4cnn(C(C)(C)C)c4)n2)n3CC(F)(F)F)[C@H](F)C1 [Compound 402B, 1-tert-butyl-N-{[3-(4-{[(3R,4R)-1-tert-butyl-3-fluoropiperidin-4-yl]amino}-1-(2,2,2-trifluoroethyl)-1H-indol-2-yl)-1,2,4-oxadiazol-5-yl]methyl}-1H-pyrazole-4-carboxamide]	* (* = 0 μM ≤ SC150 < 0.1 μM)	–
Cc1sccc1C(=O)NCc1nc(-c2cc3c(N[C@@H]4CCN(C)C[C@@H]4F)cccc3n2CC(F)(F)F)no1 [Compound 211B, N-{[3-(4-{[(3S,4R)-3-fluoro-1-methylpiperidin-4-yl]amino}-1-(2,2,2-trifluoroethyl)-1H-indol-2-yl)-1,2,4-oxadiazol-5-yl]methyl}-2-methylthiophene-3-carboxamide]	* (* = 0 μM ≤ SC150 < 0.1 μM)	–
CN1CC[C@@H](Nc2cccc3c2cc(-c2cc(CNc4ccc(S(C)(=O)=O)cc4)cs2)n3CC(F)(F)F)[C@@H](F)C1 [Compound 284B, N-[(3S,4R)-3-fluoro-1-methylpiperidin-4-yl]-2-(4-{[(4-methanesulfonylphenyl)amino]methyl}thiophen-2-yl)-1-(2,2,2-trifluoroethyl)-1H-indol-4-amine]	** (** = 0.1 μM ≤ SC150 < 0.5 μM)	–
CN1CC[C@@H](Nc2cccc3c2cc(-c2cc(CNC(=O)c4ccn(C(C)(C)C)c4)on2)n3CC(F)(F)F)[C@@H](F)C1 [Compound 553B, 1-tert-butyl-N-{[3-(4-{[(3S,4R)-3-fluoro-1-methylpiperidin-4-yl]amino}-1-(2,2,2-trifluoroethyl)-1H-indol-2-yl)-1,2-oxazol-5-yl]methyl}-1H-pyrrole-3-carboxamide]	* (* = 0 μM ≤ SC150 < 0.1 μM)	–
CN1CCC(Nc2cccc3c2cc(-c2noc(CNC(=O)c4ccc(C#N)cc4)n2)n3CC(F)(F)F)CC1 [Compound 151B, 4-cyano-N-[(3-{4-[(1-methylpiperidin-4-yl)amino]-1-(2,2,2-trifluoroethyl)-1H-indol-2-yl}-1,2,4-oxadiazol-5-yl)methyl]benzamide]	* (* = 0 μM ≤ SC150 < 0.1 μM)	–

More lines, now with the values ahead:

Y220C SC150 (μM)	SC150 (μM) (concentration to increase DNA binding by […], incubated at either 27° C. or 29° C. for 60 min)	SMILES
* (* = 0 μM ≤ SC150 < 0.1 μM)	–	C[C@@H]1CN(C)CC[C@@H]1Nc1cccc2c1cc(-c1noc(CNC(=O)c3ccn(C(C)(C)C)c3)n1)n2CC(F)(F)F [Compound 513B, 1-tert-butyl-N-{[3-(4-{[(3R,4S)-1,3-dimethylpiperidin-4-yl]amino}-1-(2,2,2-trifluoroethyl)-1H-indol-2-yl)-1,2,4-oxadiazol-5-yl]methyl}-1H-pyrrole-3-carboxamide]
** (** = 0.1 μM ≤ SC150 < 0.5 μM)	–	CN1CCC(Nc2cccc3c2cc(-c2nnc(CNC(=O)Cc4ccccc4)s2)n3CC(F)(F)F)CC1 [Compound 59B, N-[(5-{4-[(1-methylpiperidin-4-yl)amino]-1-(2,2,2-trifluoroethyl)-1H-indol-2-yl}-1,3,4-thiadiazol-2-yl)methyl]-2-phenylacetamide]
* (* = 0 μM ≤ SC150 < 0.1 μM)	–	CN1CC[C@@H](Nc2cccc3c2cc(-c2noc(CNC(=O)c4cccc(N(C)C)c4)n2)n3CC(F)(F)F)[C@@H](F)C1 [Compound 242B, 3-(dimethylamino)-N-{[3-(4-{[(3S,4R)-3-fluoro-1-methylpiperidin-4-yl]amino}-1-(2,2,2-trifluoroethyl)-1H-indol-2-yl)-1,2,4-oxadiazol-5-yl]methyl}benzamide]
–	++ (++ = 2 μM ≤ SC150 < 5 μM)	N#CC1(c2ccc(-c3cc4c(NC5CCS(=O)(=O)CC5)cccc4n3CC(F)(F)F)cc2)CC1 [Compound 26A, 1-(4-{4-[(1,1-dioxo-1λ^6-thian-4-yl)amino]-1-(2,2,2-trifluoroethyl)-1H-indol-2-yl}phenyl)cyclopropane-1-carbonitrile]
* (* = 0 μM ≤ SC150 < 0.1 μM)	–	CN1CCC(Nc2cccc3c2cc(-c2noc(CNC(=O)c4nccs4)n2)n3CC(F)(F)F)CC1 [Compound 149B, N-[(3-{4-[(1-methylpiperidin-4-yl)amino]-1-(2,2,2-trifluoroethyl)-1H-indol-2-yl}-1,2,4-oxadiazol-5-yl)methyl]-1,3-thiazole-2-carboxamide]
* (* = 0 μM ≤ SC150 < 0.1 μM)	–	CN1CC[C@H](Nc2cccc3c2cc(-c2nnc(CNC(=O)C4CC4)s2)n3CC(F)(F)F)[C@H](F)C1 [Compound 48B, N-{[5-(4-{[(3R,4S)-3-fluoro-1-methylpiperidin-4-yl]amino}-1-(2,2,2-trifluoroethyl)-1H-indol-2-yl)-1,3,4-thiadiazol-2-yl]methyl}cyclopropanecarboxamide]
* (* = 0 μM ≤ SC150 < 0.1 μM)	–	CN1CC[C@H](F)[C@H](Nc2cccc3c2cc(-c2noc(CNC(=O)c4ccn(C(C)(C)C)c4)n2)n3CC(F)(F)F)C1 [Compound 414B, 1-tert-butyl-N-{[3-(4-{[(3R,4S)-4-fluoro-1-methylpiperidin-3-yl]amino}-1-(2,2,2-trifluoroethyl)-1H-indol-2-yl)-1,2,4-oxadiazol-5-yl]methyl}-1H-pyrrole-3-carboxamide]
* (* = 0 μM ≤ SC150 < 0.1 μM)	–	COCC1(n2ccc(C(=O)NCc3nc(-c4cc5c(N[C@@H]6CCN(C)C[C@@H]6F)cccc5n4CC(F)(F)F)no3)c2)CC1 [Compound 426B, N-{[3-(4-{[(3S,4R)-3-fluoro-1-methylpiperidin-4-yl]amino}-1-(2,2,2-trifluoroethyl)-1H-indol-2-yl)-1,2,4-oxadiazol-5-yl]methyl}-1-[1-(methoxymethyl)cyclopropyl]-1H-pyrrole-3-carboxamide]
* (* = 0 μM ≤ SC150 < 0.1 μM)	–	CN1CC[C@@H](Nc2cccc3c2cc(-c2noc(CNC(=O)[C@H]4CC4(C)C)n2)n3CC(F)(F)F)[C@@H](F)C1 [Compound 233B, (1S)-N-{[3-(4-{[(3S,4R)-3-fluoro-1-methylpiperidin-4-yl]amino}-1-(2,2,2-trifluoroethyl)-1H-indol-2-yl)-1,2,4-oxadiazol-5-yl]methyl}-2,2-dimethylcyclopropane-1-carboxamide]

— patent US11807644B2 (PMV Pharmaceuticals, Inc., priority 2020, dated 2023)
